Toxic doses and inconclusive results are not listed. Cut-off read from the data, not from the text of the source: active = T/C of 150% or more; inactive = T/C below 125%.
Tested on: L1210 leukemia ip in BDF1 mice, survival T/C
Assay: NCI In Vivo Anticancer Drug Screen. Data for tumor model L1210 Leukemia (intraperitoneal) in B6D2F1 (BDF1) mice
Details: endpoint: mean survival time, higher = longer survival
Procedure, shortened: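 Mice bearing the transplanted tumor received compound or vehicle. Survival of the treated group was divided by that of the vehicle-treated control group to give the ratio.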

Measured: T/C

COc1ccc(CCC(=O)O)cc1
inactive: dose: 50.0 mg/kg/injection, schedule: Q04DX003 (ip), vehicle: gum acacia 98 % of control | dose: 100.0 mg/kg/injection, schedule: Q04DX003 (ip), vehicle: gum acacia 98 % of control | dose: 200.0 mg/kg/injection, schedule: Q04DX003 (ip), vehicle: gum acacia 95 % of control

CC1(C(=O)O)CC12c1ccccc1-c1ccccc12 (stereo unspecified)
inactive: dose: 100.0 mg/kg/injection, schedule: Q01DX001 (ip), vehicle: acetone 103 % of control | dose: 200.0 mg/kg/injection, schedule: Q01DX001 (ip), vehicle: acetone 92 % of control

Cc1cccc(N2CCN(c3ccncc3N)CC2C)c1 (stereo unspecified)
inactive: dose: 19.0 mg/kg/injection, schedule: Q01DX009 (ip), vehicle: saline with Tween-80 102 % of control | dose: 37.5 mg/kg/injection, schedule: Q04DX003 (ip), vehicle: saline with Tween-80 94 % of control | dose: 38.0 mg/kg/injection, schedule: Q01DX009 (ip), vehicle: saline with Tween-80 91 % of control | dose: 75.0 mg/kg/injection, schedule: Q01DX009 (ip), vehicle: saline with Tween-80 89 % of control | dose: 75.0 mg/kg/injection, schedule: Q04DX003 (ip), vehicle: saline with Tween-80 94 % of control

CCCCCCCCCCSCCCCCCCCSCCCCCCCCCC
inactive: dose: 100.0 mg/kg/injection, schedule: Q01DX001 (ip), vehicle: Klucel (hydroxypropylcellulose) (HPC) 94 % of control | dose: 200.0 mg/kg/injection, schedule: Q01DX001 (ip), vehicle: Klucel (hydroxypropylcellulose) (HPC) 87 % of control | dose: 400.0 mg/kg/injection, schedule: Q01DX001 (ip), vehicle: Klucel (hydroxypropylcellulose) (HPC) 96 % of control

CC(=O)OC1CCC2(C)C(=CCC3C2CCC2(C)C3CC3C(c4ccccc4Cl)=NN(c4ccccc4)C32C#N)C1 (stereo unspecified)
inactive: dose: 100.0 mg/kg/injection, schedule: Q04DX002 (ip), vehicle: Klucel (hydroxypropylcellulose) (HPC) 95 % of control | dose: 200.0 mg/kg/injection, schedule: Q04DX002 (ip), vehicle: Klucel (hydroxypropylcellulose) (HPC) 95 % of control | dose: 400.0 mg/kg/injection, schedule: Q04DX002 (ip), vehicle: Klucel (hydroxypropylcellulose) (HPC) 95 % of control

CCn1c(=S)[nH]c2ccccc2c1=O
inactive: dose: 100.0 mg/kg/injection, schedule: Q04DX002 (ip), vehicle: saline with Tween-80 98 % of control | dose: 200.0 mg/kg/injection, schedule: Q04DX002 (ip), vehicle: saline with Tween-80 109 % of control | dose: 400.0 mg/kg/injection, schedule: Q04DX002 (ip), vehicle: saline with Tween-80 102 % of control

CCOC(=O)C(NC=O)C(=O)OCC
inactive: dose: 25.0 mg/kg/injection, schedule: Q01DX009 (ip), vehicle: saline 101 % of control | dose: 50.0 mg/kg/injection, schedule: Q01DX009 (ip), vehicle: saline 101 % of control | dose: 100.0 mg/kg/injection, schedule: Q01DX009 (ip), vehicle: saline 101 % of control | dose: 200.0 mg/kg/injection, schedule: Q01DX009 (ip), vehicle: saline 103 % of control | dose: 400.0 mg/kg/injection, schedule: Q01DX009 (ip), vehicle: saline 98 % of control

O=C1NC2C(NC(=O)N2Cl)N1Cl (stereo unspecified)
inactive: dose: 12.5 mg/kg/injection, schedule: Q01DX009 (ip), vehicle: saline with Tween-80 97 % of control | dose: 25.0 mg/kg/injection, schedule: Q01DX009 (ip), vehicle: saline with Tween-80 100 % of control | dose: 25.0 mg/kg/injection, schedule: Q04DX003 (ip), vehicle: saline with Tween-80 94 % of control | dose: 40.0 mg/kg/injection, schedule: Q01DX Z (ip), vehicle: carboxymethylcellulose (CMC) 92 % of control | dose: 50.0 mg/kg/injection, schedule: Q01DX009 (ip), vehicle: saline with Tween-80 94 % of control | dose: 50.0 mg/kg/injection, schedule: Q04DX003 (ip), vehicle: saline with Tween-80 95 % of control | dose: 100.0 mg/kg/injection, schedule: Q01DX009 (ip), vehicle: saline with Tween-80 94 % of control | dose: 100.0 mg/kg/injection, schedule: Q04DX003 (ip), vehicle: saline with Tween-80 105 % of control

CCCCCCCSc1ccc(C(=O)O)cc1
inactive: dose: 37.5 mg/kg/injection, schedule: Q01DX009 (ip), vehicle: saline 91 % of control | dose: 75.0 mg/kg/injection, schedule: Q01DX001 (ip), vehicle: acetone 102 % of control | dose: 75.0 mg/kg/injection, schedule: Q01DX009 (ip), vehicle: saline 97 % of control | dose: 75.0 mg/kg/injection, schedule: Q04DX003 (ip), vehicle: acetone 102 % of control | dose: 150.0 mg/kg/injection, schedule: Q01DX001 (ip), vehicle: acetone 95 % of control | dose: 150.0 mg/kg/injection, schedule: Q01DX009 (ip), vehicle: saline 90 % of control | dose: 150.0 mg/kg/injection, schedule: Q04DX003 (ip), vehicle: acetone 102 % of control | dose: 300.0 mg/kg/injection, schedule: Q01DX001 (ip), vehicle: acetone 98 % of control | dose: 300.0 mg/kg/injection, schedule: Q04DX003 (ip), vehicle: acetone 102 % of control
